Reference: ChEMBL document CHEMBL1201862, “PubChem BioAssay data set” (2004)
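Five compound concentrations were applied to cells in 96-well plates for 48 hours; endpoints were derived by simple linear interpolation of the resulting dose-response curve. Here, GI50 denotes the concentration required for 50% inhibition of growth.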 Activity calls are given as the source filed them. No stated cut-off is given here; in the data, active = GI50 up to about 1.1 µM and inactive = higher.

Columns and labels:
Experiment in all cases: NCI-60 cell line screen, 48 h
ACHN = tested on: ACHN
T47D = tested on: T47D
K562 = tested on: K562
SW-620 = tested on: SW-620
OVCAR-3 = tested on: OVCAR-3
MDA-MB-231 = tested on: MDA-MB-231
HOP-92 = tested on: HOP-92
MDA-N = tested on: MDA-N
NCI/ADR-RES = tested on: NCI/ADR-RES
BT-549 = tested on: BT-549
DU-145 = tested on: DU-145
SF-268 = tested on: SF-268
SK-MEL-2 = tested on: SK-MEL-2
CCRF-CEM = tested on: CCRF-CEM
M14 = tested on: M14
UACC-62 = tested on: UACC-62
NCI-H522 = tested on: NCI-H522
NCI-H23 = tested on: NCI-H23

Row | SMILES | GI50 (ACHN) | GI50 (T47D) | GI50 (K562) | GI50 (SW-620) | GI50 (OVCAR-3) | GI50 (MDA-MB-231) | GI50 (HOP-92) | GI50 (MDA-N) | GI50 (NCI/ADR-RES) | GI50 (BT-549) | GI50 (DU-145) | GI50 (SF-268) | GI50 (SK-MEL-2) | GI50 (CCRF-CEM) | GI50 (M14) | GI50 (UACC-62) | GI50 (NCI-H522) | GI50 (NCI-H23)
1 | CN1CC2=C(OC(N)=C(C#N)C2c2cccs2)/C(=C/c2cccs2)C1 (stereo not given) | 2.43 µM (inactive) | 0.202 µM (active) | 10.3 µM (inactive) | 42.8 µM (inactive) | 15.8 µM (inactive) | > 49 µM (inactive) | 2.09 µM (inactive) | 5.64 µM (inactive) | 3.41 µM (inactive) | 5.62 µM (inactive) | 23.4 µM (inactive) | 13.5 µM (inactive) | > 35.1 µM (inactive) | 5.52 µM (inactive) | 13.1 µM (inactive) | 19.7 µM (inactive) | 7.94 µM (inactive) | 7.18 µM (inactive)
2 | Cn1c(=O)nc2n(CCO)ccnc-2c1=O | > 100 µM (inactive) | > 100 µM (inactive) | > 100 µM (inactive) | > 100 µM (inactive) | > 100 µM (inactive) | > 100 µM (inactive) | > 100 µM (inactive) | > 100 µM (inactive) | > 100 µM (inactive) | > 100 µM (inactive) | > 100 µM (inactive) | > 100 µM (inactive) | > 100 µM (inactive) | > 100 µM (inactive) | > 100 µM (inactive) | > 100 µM (inactive) | > 100 µM (inactive) | > 100 µM (inactive)
3 | c1ccc2cc(CN3CCC(C4CCN(Cc5ccc6ccccc6c5)CC4)CC3)ccc2c1 | 4.99 µM (inactive) | 4.76 µM (inactive) | 0.692 µM (active) | 2.74 µM (inactive) | 4.59 µM (inactive) | 4.82 µM (inactive) | 4.1 µM (inactive) | 1.96 µM (inactive) | 6.79 µM (inactive) | 10.3 µM (inactive) | 11.8 µM (inactive) | 8.53 µM (inactive) | 2.18 µM (inactive) | 4.06 µM (inactive) | 1.91 µM (inactive) | 2.03 µM (inactive) | 1.89 µM (inactive) | 11.4 µM (inactive)
4 | CC1=Nc2ccccc2/C1=C\c1c(C)[nH]c2ccccc12 | 15.7 µM (inactive) | 9.53 µM (inactive) | 7.21 µM (inactive) | 11 µM (inactive) | 12.6 µM (inactive) | 13.4 µM (inactive) | 3.73 µM (inactive) | 6.75 µM (inactive) | 16.2 µM (inactive) | 3.55 µM (inactive) | 15.8 µM (inactive) | 11.2 µM (inactive) | 17.8 µM (inactive) | 5.04 µM (inactive) | 23.2 µM (inactive) | 5.26 µM (inactive) | 10 µM (inactive) | 13 µM (inactive)
5 | CSc1nc(Cl)c2c(n1)Sc1nc3ccccc3n1N=C2 | 23.7 µM (inactive) | 23.5 µM (inactive) | 21.3 µM (inactive) | 13.2 µM (inactive) | 25.5 µM (inactive) | 23.9 µM (inactive) | 18.3 µM (inactive) | 22 µM (inactive) | 21.7 µM (inactive) | 18.6 µM (inactive) | > 100 µM (inactive) | 31 µM (inactive) | 50.4 µM (inactive) | 14.9 µM (inactive) | 21 µM (inactive) | 29.4 µM (inactive) | 19 µM (inactive) | 29.6 µM (inactive)
6 | CSc1n[nH]c2[nH]nc(C)c12 | > 100 µM (inactive) | > 100 µM (inactive) | > 74 µM (inactive) | > 100 µM (inactive) | > 100 µM (inactive) | > 100 µM (inactive) | > 100 µM (inactive) | > 100 µM (inactive) | > 100 µM (inactive) | > 100 µM (inactive) | > 100 µM (inactive) | > 100 µM (inactive) | > 100 µM (inactive) | > 100 µM (inactive) | > 100 µM (inactive) | > 100 µM (inactive) | > 100 µM (inactive) | > 100 µM (inactive)
7 | CCC1CC(C)C(O)/C=C/C=C/CC(C)OC(=O)CC(O)C(OC)C1OC1OC(C)CC(O)(C(C)=O)C1O (stereo not given) | 49.5 µM (inactive) | 51.4 µM (inactive) | – | > 100 µM (inactive) | 20.3 µM (inactive) | 16 µM (inactive) | > 100 µM (inactive) | 36.4 µM (inactive) | 49 µM (inactive) | 40.6 µM (inactive) | 96.6 µM (inactive) | 83.6 µM (inactive) | 39.1 µM (inactive) | 46.5 µM (inactive) | 78.5 µM (inactive) | > 100 µM (inactive) | 13.3 µM (inactive) | 45.2 µM (inactive)
